Source: patent US20240237643A1, “COMPOSITIONS WITH VIRUCIDAL AND/OR ANTIVIRAL ACTIVITY” (priority 2020, published 2024)

What was measured:
Assay type in all cases: cell-based
Coronavirus (MHV-3) = assay: Virucidal activity, quantitative suspension test DIN EN 14476
Procedure: (§1) Testing was conducted over a period of 1 to 10 minutes. Activity against the following viruses was determined: • Coronavirus (MHV-3) • Influenza virus (H1N1) • Herpes simplex virus (HV) • Human respiratory syncytial virus (HRSV)
(§2) In this context (+) means that more than 99.99% of all viruses were inactivated; this is equivalent to a reduction factor of 10,000.

Influenza virus (H1N1) = assay: as above
[1] = test system: Herpes simplex virus (HV); assay: as above
[2] = test system: Human respiratory syncytial virus (HRSV); assay: as above
[3] = test system: all virus types (MHV-3, H1N1, HV, HRSV); assay: Virucidal activity DIN EN 14476, summary over all virus types; settings: concentration of 0.1 wt.-percent
Procedure: as §1, §2

[4] = 0.1 wt.-percent in water, 1 min
[5] = 0.1 wt.-percent in water, 10 min
[6] = 10 wt.-percent in water, 10 min

CC(C)=CCCC(C)=CCCC(C)=CCO [3,7,11-trimethyl-2,6,10-dodecantrien-1-ol]
Virucidal activity MHV-3 (Coronavirus (MHV-3); [4]): (+) ((+) means that more than 99.99% of all viruses were inactivated; this is equivalent to a reduction factor of 10,000) | Virucidal activity MHV-3 (Coronavirus (MHV-3); [5]): (+) ((+) means that more than 99.99% of all viruses were inactivated; this is equivalent to a reduction factor of 10,000) | Virucidal activity MHV-3 (Coronavirus (MHV-3); 1 wt.-percent in water, 1 min): (+) ((+) means that more than 99.99% of all viruses were inactivated; this is equivalent to a reduction factor of 10,000) | Virucidal activity MHV-3 (Coronavirus (MHV-3); 1 wt.-percent in water, 10 min): (+) ((+) means that more than 99.99% of all viruses were inactivated; this is equivalent to a reduction factor of 10,000) | Virucidal activity MHV-3 (Coronavirus (MHV-3); 10 wt.-percent in water, 1 min): (+) ((+) means that more than 99.99% of all viruses were inactivated; this is equivalent to a reduction factor of 10,000) | Virucidal activity MHV-3 (Coronavirus (MHV-3); [6]): (+) ((+) means that more than 99.99% of all viruses were inactivated; this is equivalent to a reduction factor of 10,000) | Virucidal activity H1N1 (Influenza virus (H1N1); [4]): (+) ((+) means that more than 99.99% of all viruses were inactivated; this is equivalent to a reduction factor of 10,000) | Virucidal activity H1N1 (Influenza virus (H1N1); [5]): (+) ((+) means that more than 99.99% of all viruses were inactivated; this is equivalent to a reduction factor of 10,000) | Virucidal activity H1N1 (Influenza virus (H1N1); 1 wt.-percent in water, 1 min): (+) ((+) means that more than 99.99% of all viruses were inactivated; this is equivalent to a reduction factor of 10,000) | Virucidal activity H1N1 (Influenza virus (H1N1); 1 wt.-percent in water, 10 min): (+) ((+) means that more than 99.99% of all viruses were inactivated; this is equivalent to a reduction factor of 10,000) | Virucidal activity H1N1 (Influenza virus (H1N1); 10 wt.-percent in water, 1 min): (+) ((+) means that more than 99.99% of all viruses were inactivated; this is equivalent to a reduction factor of 10,000) | Virucidal activity H1N1 (Influenza virus (H1N1); [6]): (+) ((+) means that more than 99.99% of all viruses were inactivated; this is equivalent to a reduction factor of 10,000) | Virucidal activity HV [1, 4]: (+) ((+) means that more than 99.99% of all viruses were inactivated; this is equivalent to a reduction factor of 10,000) | Virucidal activity HV [1, 5]: (+) ((+) means that more than 99.99% of all viruses were inactivated; this is equivalent to a reduction factor of 10,000) | Virucidal activity HV ([1]; 1 wt.-percent in water, 1 min): (+) ((+) means that more than 99.99% of all viruses were inactivated; this is equivalent to a reduction factor of 10,000) | Virucidal activity HV ([1]; 1 wt.-percent in water, 10 min): (+) ((+) means that more than 99.99% of all viruses were inactivated; this is equivalent to a reduction factor of 10,000) | Virucidal activity HV ([1]; 10 wt.-percent in water, 1 min): (+) ((+) means that more than 99.99% of all viruses were inactivated; this is equivalent to a reduction factor of 10,000) | Virucidal activity HV [1, 6]: (+) ((+) means that more than 99.99% of all viruses were inactivated; this is equivalent to a reduction factor of 10,000) | Virucidal activity HRSV [2, 4]: (+) ((+) means that more than 99.99% of all viruses were inactivated; this is equivalent to a reduction factor of 10,000) | Virucidal activity HRSV [2, 5]: (+) ((+) means that more than 99.99% of all viruses were inactivated; this is equivalent to a reduction factor of 10,000) | Virucidal activity HRSV ([2]; 1 wt.-percent in water, 1 min): (+) ((+) means that more than 99.99% of all viruses were inactivated; this is equivalent to a reduction factor of 10,000) | Virucidal activity HRSV ([2]; 1 wt.-percent in water, 10 min): (+) ((+) means that more than 99.99% of all viruses were inactivated; this is equivalent to a reduction factor of 10,000) | Virucidal activity HRSV ([2]; 10 wt.-percent in water, 1 min): (+) ((+) means that more than 99.99% of all viruses were inactivated; this is equivalent to a reduction factor of 10,000) | Virucidal activity HRSV [2, 6]: (+) ((+) means that more than 99.99% of all viruses were inactivated; this is equivalent to a reduction factor of 10,000) | reduction factor [3]: 10,000
